US12317897B2, “Methods of controlling or preventing infestation of vegetable, tomato and potato plants by phytopathogenic microorganisms” (SYNGENTA CROP PROTECTION AG, priority 2017, dated 2025)

Assays:
Assay type in all cases: in vivo
Fusarium oxysporum [1] = experiment: Fusarium oxysporum in tomato, greenhouse trial, drench at planting; conditions: 100 g AI/ha, 132 days after planting
Description: Fusarium oxysporum in Tomato:
A tomato greenhouse trial was carried out in Sanlucar de Barrameda, Cadiz, Spain in 2017 to evaluate the efficacy of different compounds against Fusarium oxysporum in tomato.
Three week old tomato plants were transplanted on Apr. 7, 2017 and the afterwards drench applied with the compounds using a water volume of 100 ml per plant.
In order to increase the disease pressure 60 ml Fusarium oxysporum suspension with a concentration of 1′000′000 spores per milliliter of water was drenched directly in the planting hole were the plants will be transplanted the next day. The assessment on disease incidence and was done 132 days after transplanting on Aug. 17, 2017.
Assessments: Pest Incidence, 132 Days after Planting

Fusarium oxysporum [2] = experiment: Fusarium oxysporum in melon, greenhouse trial, drench at planting; conditions: 60 g AI/ha, 69 days after planting
Description: Fusarium oxysporum in Melon:
A melon greenhouse trial was carried out in El Ejido, Almeria, Spain in 2017 to evaluate the efficacy of different compounds against Fusarium oxysporum in melon.
The melon transplants were planted on May 5, 2017 and the afterwards drench applied with the compounds using a water volume of 100 ml per plant.
In order to increase the disease pressure each plot has been inoculated with 900 ml Fusarium oxysporum suspension with a concentration of 100′000 spores per millilitre of water three days before transplanting. The first disease symptoms were visible three weeks after transplanting and an assessment on disease severity and was done 69 days after transplanting on Jul. 13, 2017.
Assessments: Pest Severity, 69 Days after Planting

Alternaria solani = Alternaria solani (early blight) on potato, field trial, in-furrow spray at planting; conditions: 250 g AI/ha, 89 days after planting
Description: Alternaria solani on Potato: A potato field trial was carried out in Tompkins, New York, USA in 2018 to evaluate the efficacy of different compounds against early blight disease caused by Alternaria solani. The potato tubers were applied in-furrow at planting by using boom sprayer with a flat fan nozzle. The disease occurred beginning of August and an assessment on disease severity and was done Sep. 5, 2018. [table] [table] [table] [table] [table] [table] Assessments: Pest Severity, 89 Days after Planting

Fusarium oxysporum [3] = experiment: Fusarium oxysporum on okra, field trial, drench at planting; conditions: 375 g AI/ha, 60 days after planting
Description: Fusarium oxysporum on Okra:
An okra field trial was carried out in Kuppanur, Coimbatore, India in 2018 to evaluate the efficacy of different compounds against Fusarium oxysporum in okra.
The okra seeds were planted on Jun. 29, 2018 and directly afterwards drench applied with the compounds using a water volume of 50 ml per plant. The disease occurred two weeks after planting and an assessment on disease incidence and was done Aug. 28, 2018.
Assessments: Pest Incidence, 60 Days after Planting

For `CON(C(=O)c1cn(C)nc1C(F)F)C(C)Cc1c(Cl)cc(Cl)cc1Cl` (centres unmarked) [COMPOUND 2 SC 200, PYDIFLUMETOFEN], the “Pest incidence (%)” value (Fusarium oxysporum [1]; tomato Irati, CHECK 78.33) was 15.00, B %, the “% efficacy based on pest incidence” value (Fusarium oxysporum [1]; tomato) was 80.85% and the “Pest severity (%)” value (Fusarium oxysporum [2]; melon Brisa, CHECK 82.41) was 16.67, B %. The “% efficacy based on pest severity” value (Fusarium oxysporum [2]; melon) was 79.77%.

For `O=C(NCCc1ncc(C(F)(F)F)cc1Cl)c1ccccc1C(F)(F)F` [COMPOUND 2 SC 500, Fluopyram], the “Pest severity (%)” value (Alternaria solani; potato Red Norland, CHECK 97.25) was 19.75, C %, the Emax at 250 g/ha (Alternaria solani; Alternaria solani, 2136 h, potato, read-out: % efficacy based on pest severity) was 79.7% and the “Pest incidence (%)” value (Fusarium oxysporum [3]; okra Samrat, CHECK 84.20) was 20.50, C %. For the same compound, the Emax at 375 g/ha (Fusarium oxysporum [3]; Fusarium oxysporum, in Abelmoschus esculentus, soil, 1440 h, okra, read-out: % efficacy based on pest incidence) was 75.7%.
